From patent publication US6498163B1, “Pyrido[2,3-D]pyrimidines and 4-aminopyrimidines as inhibitors of cellular proliferation” (Warner-Lambert Company, priority 1997, dated 2002)
Counter-ions that a name gives are not always drawn. Like-named read-outs stand apart in the source and are kept apart here.

Key:
cdk4/D = cdk4/D (Homo sapiens, UniProt P11802); test: Cyclin-dependent kinase 4 (cdk4) assay; format: biochemical; conditions: for cdk4/D % inhibition at 40 μM: Table 2
Procedure: As noted above, the compounds of this invention are potent inhibitors of cyclin-dependent kinases, and accordingly, are useful in treating and preventing atherosclerosis, and other cell proliferative disorders like cancer. […] A typical assay, for instance, measures inhibitory activity against the cyclin D dependent kinase 4 enzyme (cdk4/D). […] The cdk 4 assay was carried out as follows.
Cyclin-Dependent Kinase 4 (cdk4) Assay
The total volume was 0.1 mL containing a final concentration of 20 mM TRIS (tris[hydroxymethyl]aminomethane), at pH 7.4, 50 mM NaCl, 1 mM dithiothreitol, 10 mM MgCl2, 25 μM ATP containing 0.25 μCi of [^32P]ATP, 20 ng of cdk4, 1 μg of retinoblastoma, and appropriate dilutions of a compound of the present invention. All components except the ATP were added to the wells, and the plate was placed on a plate mixer for 2 minutes. The reaction was started by adding [^32P]ATP and the plate was incubated at 25° C. for 15 minutes. The reaction was terminated by addition of 0.1 mL of 20% trichloroacetic acid (TCA). The plate was kept at 4° C. for at least 1 hour to allow the substrate to precipitate. The wells were then washed five times with 0.2 mL of 10% TCA and ^32P incorporation was determined with a beta plate counter (Wallac Inc., Gaithersburg, Md.).

[1] = target: T1, PDGF-β receptor tyrosine kinase (Mus musculus, UniProt P05622); test: PDGF receptor tyrosine kinase assay; format: biochemical; conditions: Table 4, Formula II compound
T1 construct: amplify a fragment of DNA that codes for the intracellular tyrosine kinase domain; made in house; host or cells: SF9 insect cells (baculovirus)
T1 sequence (P05622 599-961 limits assumed): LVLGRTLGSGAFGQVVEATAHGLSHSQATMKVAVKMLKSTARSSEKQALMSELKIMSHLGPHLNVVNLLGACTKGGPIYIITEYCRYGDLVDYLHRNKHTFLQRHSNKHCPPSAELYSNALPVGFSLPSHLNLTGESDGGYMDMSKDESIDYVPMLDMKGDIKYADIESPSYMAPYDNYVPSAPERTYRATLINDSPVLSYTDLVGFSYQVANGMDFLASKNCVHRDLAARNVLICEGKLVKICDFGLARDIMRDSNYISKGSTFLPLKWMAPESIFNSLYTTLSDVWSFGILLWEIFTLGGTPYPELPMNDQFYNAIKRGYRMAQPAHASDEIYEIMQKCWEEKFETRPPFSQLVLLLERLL
Procedure: (§1) The compounds of Formulas I and II also have shown good inhibitory activity against certain growth factor receptor tyrosine kinase enzymes, including fibroblast growth factor (FGF) and platelet derived growth factor (PDGF). […] The invention compounds range in IC50 inhibition against FGF tyrosine kinase generally from about 0.004 to about 40 μM. […] The assays used to determine these activities were carried out as follows:
(§2) PDGF and EGF Receptor Tyrosine Kinase Assays
(§3) Full-length cDNAs for the mouse PDGF-β and human FGF-1 (flg) receptor tyrosine kinases were obtained from J. Escobedo and prepared as described in J. Biol. Chem., 1991;262:1482-1487. PCR primers were designed to amplify a fragment of DNA that codes for the intracellular tyrosine kinase domain. The fragment was inserted into a baculovirus vector, cotransfected with AcMNPV DNA, and the recombinant virus isolated. SF9 insect cells were infected with the virus to overexpress the protein, and the cell lysate was used for the assay. […] Filters were washed three times with 15% TCA containing 100 mM sodium pyrophosphate, and the radioactivity retained on the filters counted in a Wallac 1250 Betaplate reader. Nonspecific activity was defined as radioactivity retained on the filters following incubation of samples with buffer alone (no enzyme). […]

[2] = target: T2, FGF-1 (flg) receptor tyrosine kinase (Homo sapiens, UniProt P11362); test: FGF receptor tyrosine kinase assay; format: biochemical; conditions: Table 4, Formula II compound
T2 construct: amplify a fragment of DNA that codes for the intracellular tyrosine kinase domain; made in house; host or cells: SF9 insect cells (baculovirus)
T2 sequence (P11362 478-767 limits assumed): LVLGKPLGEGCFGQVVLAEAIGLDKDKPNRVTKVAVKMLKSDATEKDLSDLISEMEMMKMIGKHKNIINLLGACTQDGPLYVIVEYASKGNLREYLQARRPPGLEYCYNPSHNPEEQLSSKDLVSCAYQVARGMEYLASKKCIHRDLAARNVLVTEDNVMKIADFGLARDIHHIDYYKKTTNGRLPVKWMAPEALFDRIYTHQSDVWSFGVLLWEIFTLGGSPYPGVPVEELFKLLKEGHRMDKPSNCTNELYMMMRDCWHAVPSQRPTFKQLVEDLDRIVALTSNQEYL
Procedure: as §1, §2, §3

[3] = Plasma levels in mice after dosing; format: in vivo, nude mice; conditions: intraperitoneally at 12 mg/kg, at 30 minutes following dosing
Procedure: For example, the compound of Example 60 was administered orally at 5 mg/kg to mice, and plasma levels of about 200 nM were measured at 30 minutes following dosing. The compound was also administered intraperitoneally at 12 mg/kg and produced a peak plasma concentration of 10,000 nM at 30 minutes following dosing.

[4] = tested on: MCF-7 human mammary tumor xenografts; test: MCF-7 human mammary tumor xenograft; format: in vivo, female nude mice; conditions: 5 to 20 mg/kg, q12 h×2; days 1-14, subcutaneous MCF-7 xenografts
cdc2/cyclinB = cdc2/cyclinB (Homo sapiens, UniProt P06493); test: Cyclin-dependent kinase assay cdc2/cyclinB (cdk1/B); format: biochemical; conditions: Table 1
Sequence of cdc2/cyclinB (P06493 whole entry, species assumed): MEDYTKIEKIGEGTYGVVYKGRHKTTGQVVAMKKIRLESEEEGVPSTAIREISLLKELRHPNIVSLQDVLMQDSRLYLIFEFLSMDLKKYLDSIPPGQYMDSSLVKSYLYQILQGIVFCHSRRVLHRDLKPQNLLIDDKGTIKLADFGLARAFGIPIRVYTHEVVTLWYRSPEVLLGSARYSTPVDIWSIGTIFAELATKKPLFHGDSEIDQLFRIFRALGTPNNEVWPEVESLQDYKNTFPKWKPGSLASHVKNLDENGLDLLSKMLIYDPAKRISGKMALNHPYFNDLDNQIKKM
Sequence of cdc2/cyclinB (P14635 whole entry partner, species assumed): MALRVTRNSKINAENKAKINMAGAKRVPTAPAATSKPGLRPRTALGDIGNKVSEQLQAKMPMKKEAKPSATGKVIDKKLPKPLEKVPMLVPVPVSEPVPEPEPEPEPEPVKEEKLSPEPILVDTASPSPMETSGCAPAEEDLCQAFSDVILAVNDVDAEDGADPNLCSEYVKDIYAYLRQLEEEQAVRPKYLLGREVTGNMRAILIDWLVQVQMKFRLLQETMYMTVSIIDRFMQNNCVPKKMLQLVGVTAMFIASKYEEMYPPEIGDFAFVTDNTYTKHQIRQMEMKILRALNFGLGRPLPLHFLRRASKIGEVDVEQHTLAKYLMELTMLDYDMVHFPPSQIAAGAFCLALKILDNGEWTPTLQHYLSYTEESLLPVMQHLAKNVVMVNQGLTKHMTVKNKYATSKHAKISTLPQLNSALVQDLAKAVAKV

[5] = Table 2, Formula II compounds, read-out: cdk4/IC50 IC50

Sequence of cdk4/D (P11802 whole entry, species assumed): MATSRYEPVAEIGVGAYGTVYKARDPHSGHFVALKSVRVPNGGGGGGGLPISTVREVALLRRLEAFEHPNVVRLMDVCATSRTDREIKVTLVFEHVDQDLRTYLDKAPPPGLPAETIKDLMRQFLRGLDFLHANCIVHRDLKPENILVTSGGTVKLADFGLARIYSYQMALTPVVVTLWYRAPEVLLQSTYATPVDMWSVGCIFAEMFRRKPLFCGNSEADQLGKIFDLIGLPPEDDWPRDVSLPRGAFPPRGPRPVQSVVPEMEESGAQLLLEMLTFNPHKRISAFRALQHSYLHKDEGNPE
Sequence of cdk4/D (P24385 whole entry partner, species assumed): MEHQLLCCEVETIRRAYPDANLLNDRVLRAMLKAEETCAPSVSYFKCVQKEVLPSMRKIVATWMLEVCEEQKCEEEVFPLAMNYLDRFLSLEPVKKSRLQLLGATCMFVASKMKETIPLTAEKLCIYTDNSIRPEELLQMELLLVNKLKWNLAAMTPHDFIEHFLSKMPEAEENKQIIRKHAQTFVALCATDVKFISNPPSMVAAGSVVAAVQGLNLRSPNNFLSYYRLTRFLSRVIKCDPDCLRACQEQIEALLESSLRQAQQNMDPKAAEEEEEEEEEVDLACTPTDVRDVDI

| Compound | melting point [°C] | other results |
| --- | --- | --- |
| CCNc1nc(Nc2ccccc2)ncc1/C=C/C(=O)OCC [Example 17, Ethyl 3-(4-Ethylamino-2-phenylamino-pyrimidin-5-yl)acrylate] | 125 to 126 | IC50 (cdk4/D; [5]): 2000 nM; IC50 [1]: 3700 nM; IC50 [2]: 4500 nM |
| CCn1c(=O)ccc2cnc(NC(C)C)nc21 (as salt: sulfate) [Example 47, 8-Ethyl-2-isopropylamino-8H-pyrido[2,3-d]pyrimidin-7-one] | 119 to 120 |  |
| 3-(4-Ethylamino-2-phenylamino-pyrimidin-5yl)acrylonitrile [Example 72] |  | cdk4/D % inhibition at 40 μM (cdk4/D): 18% |
| CCn1c(=O)c(C)cc2cnc(Nc3ccc(N4CCN(C)CC4)cc3)nc21 [Example 84] |  | IC50 (cdk4/D; Table 1, read-out: cdk4/D IC50): 180 nM |
| O=c1ccc2cnc(Nc3ccc(N4CCCCC4)cc3)nc2n1C1CCCCCC1 [Example 163, 8-Cycloheptyl-2-(4-piperidin-1-yl-phenylamino)-8H-pyrido[2,3-d]pyrimidin-7-one] | 201 to 202 |  |
| CCCCn1c(=O)ccc2cnc(Nc3ccccc3)nc21 [Example 40, 8-Butyl-2-phenylamino-8H-pyrido[2,3-d]pyrimidin-7-one] | 183 to 184 |  |
| CC(C)n1c(=O)ccc2cnc(Nc3ccc(N4CCN(C)CC4)cc3)nc21 [Example 60, 8-Isopropyl-2-[4-(4-methylpiperazin-1-yl)-phenylamino]-8H-pyrido[2,3-d]pyrimidin-7-one] |  | peak plasma concentration [3]: 10,000 nM; tumor growth inhibition [4]: statistically insignificant tumor growth inhibitions |
| CC(C)Nc1ncc2ccc(=O)n(C)c2n1 [Example 67, 2-Isopropylamino-8-methyl-8H-pyrido[2,3-d]pyrimidin-7-one] | 148 to 149 |  |
| O=c1ccc2cnc(Nc3ccccc3)nc2n1-c1ccccc1 [Example 101, 2-Phenylamino-8-phenyl-8H-pyrido[2,3-]pyrimidin-7-one] | 300 to 302 |  |
| O=c1ccc2cnc(Nc3ccc(N4CCCCC4)cc3)nc2n1C1CC2CCC1C2 (stereo not drawn) [Example 229, 8-Bicyclo[2.2.1]hept-2-yl-2-(4-piperidin-1-yl-phenylamino)-8H-pyrido[2,3-d]pyrimidin-7-one] | 209 |  |
| CCOC(=O)/C=C/c1cnc(Nc2ccccc2)nc1N [Example 28, Ethyl 3-(4-Amino-2-phenylamino-pyrimidin-5-yl)acrylate] | 190 to 192 | IC50 (cdk4/D; [5]): 65000 nM |
| 3-(4-Ethylamino-2-phenylamino-pyrimidin-5-yl)-but-2-enoic acid ethyl ester [Example 73] |  | cdk4/D % inhibition at 40 μM (cdk4/D): 58% |
| O=c1ccc2cnc(Nc3ccc(SC(F)(F)F)cc3)nc2n1C1CC2CCC1C2 (stereo not drawn) [Example 221, 8-Bicyclo[2.2.1]hept-2-yl-2-(4-trifluoromethylsulfanyl-phenylamino)-8H-pyrido[2,3-d]pyrimidin-7-one] | 205 to 206 |  |
| CN1CCN(c2ccc(Nc3ncc4ccc(=O)n(CCOCc5ccccc5)c4n3)cc2)CC1 [Example 140, 8-(2-Benzyloxy-ethyl)-2-[4-(4-methyl-piperazin-1-yl)-phenylamino]-8H-pyrido[2,3-d]pyrimidin-7-one] | 183 to 185 |  |
| CN(C)c1ccc(Nc2ncc3ccc(=O)n(C4CCCCC4)c3n2)cc1 [Example 147, 8-Cyclohexyl-2-(4-dimethylamino-phenylamino)-8H-pyrido[2,3-d]pyrimidin-7-one] |  | IC50 (cdk4/D; Table 1, read-out: cdk4/D IC50): 480 nM; IC50 (cdc2/cyclinB): 89 nM |
| O=c1ccc2cnc(Nc3ccccc3)nc2n1CCCOCc1ccccc1 [Example 38, 8-(3-Benzyloxypropyl)-2-phenylamino-8H-pyrido[2,3-d]pyrimidin-7-one] |  | IC50 (cdk4/D; Table 1, read-out: cdk4/D IC50): 2700 nM; IC50 (cdc2/cyclinB): 29800 nM |
| CCC(CC)n1c(=O)ccc2cnc(Nc3ccc(N4CCN(C)CC4)cc3)nc21 [Example 77, 8-(1-Ethylpropyl)-2-[4-(4-methylpiperazin-1-yl)-phenylamino]-8H-pyrido[2,3-d]pyrimidin-7-one] | 155 to 157 |  |
| COc1ccc(CNc2ncc3ccc(=O)n(C(C)C)c3n2)cc1OC [Example 256, 2-(3,4-Dimethoxy-benzylamino)-8-isopropyl-8H-pyrido[2,3-d]pyrimidin-7-one] | 128 |  |

Now from value to compound, other results behind:

| melting point [°C] | Compound | other results |
| --- | --- | --- |
| 194 to 195 | O=c1ccc2cnc(Nc3ccc(N4CCCC(CO)C4)cc3)nc2n1C1CCCCC1 (stereo not drawn) [Example 185, 8-Cyclohexyl-2-[4-(3-hydroxymethyl-piperidin-1-yl)-phenylamino]-8H-pyrido[2,3-d]pyrimidin-7-one] |  |
| 174 to 175 | CCOC(=O)C1CCN(c2ccc(Nc3ncc4ccc(=O)n(C5CCCCC5)c4n3)cc2)CC1 [Example 164, 1-[4-(8-Cyclohexyl-7-oxo-7,8-dihydro-pyrido[2,3-d]pyrimidin-2-ylamino)-phenyl]-piperidine-4-carboxylic acid ethyl ester] |  |
| 183 to 184 | O=c1ccc2cnc(NCc3ccccc3)nc2n1C1CCCCC1 [Example 222, 2-Benzylamino-8-cyclohexyl-8H-pyrido[2,3-d]pyrimidin-7-one] |  |
| 243 to 244 | O=c1ccc2cnc(Nc3ccc(N4CCCCC4)cc3)nc2n1C1CC2CCC1C2 (stereo not drawn) [Example 181, 8-Bicyclo[2.2.1]hept-2-yl-2-(4-piperidin-1-yl-phenylamino)-8H-pyrido[2,3-d]pyrimidin-7-one] |  |
| 169 to 170 | CN(C)CCCN1CCN(c2ccc(Nc3ncc4ccc(=O)n(C5CCCCC5)c4n3)cc2)CC1 [Example 144, 8-Cyclohexyl-2-{4-[4-(3-dimethylamino-propyl)-piperazin-1-yl]-phenylamino}-8H-pyrido[2,3-d]pyrimidin-7-one] |  |
| 199 to 200 | CCn1c(=O)c(C)cc2cnc(Nc3ccc(N4CCC(CCCN5CCOCC5)CC4)cc3)nc21 [Example 264, 8-Ethyl-6-methyl-2-{4-[4-(3-morpholin-4-yl-propyl)-piperidin-1-yl]-phenylamino}-8H-pyrido[2,3-d]pyrimidin-7-one] |  |
| 156 to 157 | O=c1ccc2cnc(NCCN3CCCCC3)nc2n1C1CCCCC1 [Example 165, 8-Cyclohexyl-2-(2-piperidin-1-yl-ethylamino)-8H-pyrido[2,3-d]pyrimidin-7-one] |  |
| 111 to 112 | O=c1ccc2cnc(NCCCN3CCCCC3)nc2n1C1CCCCC1 [Example 166, 8-Cyclohexyl-2-(3-piperidin-1-yl-propylamino)-8H-pyrido[2,3-d]pyrimidin-7-one] |  |
